Experimental data as given in the NIST ThermoML archive (doi:10.1016/j.jct.2015.09.024).
Numbers after ± are expanded uncertainties.

Conditions: Liquid, ATR infrared spectroscopy

O=C=O [carbon dioxide]
vapor or sublimation pressure (295.45 K): 6020 ± 490 kPa
vapor or sublimation pressure (297.05 K): 6240 ± 500 kPa
vapor or sublimation pressure (299.05 K): 6520 ± 530 kPa
vapor or sublimation pressure (302.65 K): 7090 ± 570 kPa
vapor or sublimation pressure (303.25 K): 7180 ± 580 kPa
